Measured values as given in PubChem BioAssay (NCI).
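Results reflect a 48-hour exposure of cells in 96-well plates to compound at five concentrations. GI50 = concentration required for 50% inhibition of growth. Definition used: TGI = concentration required for complete inhibition of growth.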

Columns and labels:
Assay in all cases: NCI tumour cell line growth inhibition, 48 h
[1] = system: NCI-H460 lung
[2] = system: HS 578T breast
[3] = system: K-562 leukemia
[4] = system: SNB-19 CNS
[5] = system: NCI-H23 lung
[6] = system: A498 renal
[7] = system: OVCAR-8 ovarian
[8] = system: OVCAR-3 ovarian
[9] = system: HOP-92 NSCLC
[10] = system: OVCAR-5 ovarian
[11] = system: SF-539 CNS
[12] = system: SF-295 CNS
[13] = system: HOP-62 NSCLC
[14] = system: IGROV1 ovarian
[15] = system: NCI/ADR-RES ovarian
[16] = system: TK-10 renal
[17] = system: PC-3 prostate
[18] = system: HCC-2998 colon
[19] = system: ACHN renal
[20] = system: SK-MEL-5 melanoma
[21] = system: HT29 colon
[22] = system: COLO 205 colon
[23] = system: A549 NSCLC
[24] = system: SNB-75 CNS
[25] = system: HCT-116 colon
[26] = system: DU-145 prostate
[27] = system: SF-268 CNS
[28] = system: BT-549 breast
[29] = system: EKVX NSCLC
[30] = system: SK-MEL-28 melanoma
[31] = system: 786-0 renal
[32] = system: T-47D breast
[33] = system: UACC-257 melanoma
[34] = system: HL-60(TB) leukemia
[35] = system: MDA-MB-435
[36] = system: U251 CNS
[37] = system: NCI-H226 lung
[38] = system: UACC-62 melanoma
[39] = system: RPMI-8226 leukemia
[40] = system: CAKI-1 renal
[41] = system: MDA-MB-231 breast
[42] = system: MALME-3M melanoma
[43] = system: M14 melanoma
[44] = system: CCRF-CEM leukemia
[45] = system: LOX IMVI melanoma
[46] = system: SR leukemia
[47] = system: MOLT-4 leukemia
[48] = system: KM12 colon
[49] = system: SW-620 colon
[50] = system: RXF 393 renal
[51] = system: MCF7 breast
[52] = system: SK-OV-3 ovarian
[53] = system: SK-MEL-2 melanoma
[54] = system: HCT-15 colon
[55] = system: UO-31 renal
[56] = system: OVCAR-4 ovarian
[57] = system: SN12C renal
[58] = system: NCI-H522 lung

C[n+]1cn(-c2ccc([N+](=O)[O-])cn2)c2ccccc21
TGI [1]: > 100 µM
TGI [2]: > 100 µM
TGI [3]: > 100 µM
TGI [4]: > 100 µM
TGI [5]: > 100 µM
TGI [6]: > 100 µM
TGI [7]: > 100 µM
TGI [8]: > 100 µM
TGI [9]: > 100 µM
TGI [10]: > 100 µM
TGI [11]: > 100 µM
TGI [12]: > 100 µM
TGI [13]: > 100 µM
TGI [14]: > 100 µM
TGI [15]: > 100 µM
TGI [16]: > 100 µM
TGI [17]: > 100 µM
TGI [18]: > 100 µM
TGI [19]: > 100 µM
TGI [20]: > 100 µM
TGI [21]: > 100 µM
TGI [22]: > 100 µM
TGI [23]: > 100 µM
TGI [24]: > 100 µM
TGI [25]: > 100 µM
TGI [26]: > 100 µM
TGI [27]: > 100 µM
TGI [28]: > 100 µM
TGI [29]: > 100 µM
TGI [30]: > 100 µM
TGI [31]: > 100 µM
TGI [32]: > 100 µM
TGI [33]: > 100 µM
TGI [34]: > 100 µM
TGI [35]: > 100 µM
TGI [36]: > 100 µM
TGI [37]: > 100 µM
TGI [38]: > 100 µM
TGI [39]: > 100 µM
TGI [40]: > 100 µM
TGI [41]: > 100 µM
TGI [42]: > 100 µM
TGI [43]: > 100 µM
TGI [44]: > 100 µM
TGI [45]: > 100 µM
TGI [46]: > 100 µM
TGI [47]: > 100 µM
TGI [48]: > 100 µM
TGI [49]: > 100 µM
TGI [50]: > 100 µM
TGI [51]: > 100 µM
TGI [52]: > 100 µM
TGI [53]: > 100 µM
TGI [54]: > 100 µM
TGI [55]: > 100 µM
TGI [56]: > 100 µM

CCC(=O)Oc1cc(/C=C/C(=O)O[C@H]2C[C@H]3CN4CCc5c([nH]c6cc(OC)ccc56)[C@@H]4C[C@@H]3[C@@H](C(=O)OC)[C@@H]2OC)ccc1OC
GI50 [1]: 28.6 µM
TGI [1]: > 100 µM
GI50 [2]: 5.3 µM
TGI [2]: > 100 µM
GI50 [3]: 4.06 µM
TGI [3]: > 100 µM
GI50 [4]: 22.4 µM
TGI [4]: > 100 µM
GI50 [5]: 20.5 µM
TGI [5]: > 100 µM
GI50 [6]: 1.94 µM
TGI [6]: 9.9 µM
GI50 [7]: 19.7 µM
TGI [7]: > 100 µM
GI50 [8]: 7.3 µM
TGI [8]: 67.5 µM
GI50 [57]: 12 µM
TGI [57]: > 100 µM
GI50 [9]: 1.58 µM
TGI [9]: 11.5 µM
GI50 [10]: 40.4 µM
TGI [10]: > 100 µM
GI50 [11]: 12.3 µM
TGI [11]: 30.9 µM
GI50 [12]: 31 µM
TGI [12]: > 100 µM
GI50 [58]: 16.2 µM
TGI [58]: 33.6 µM
GI50 [13]: 25.2 µM
TGI [13]: > 100 µM
GI50 [14]: 14.1 µM
TGI [14]: 75.8 µM
GI50 [15]: 20.5 µM
TGI [15]: > 100 µM
GI50 [16]: 14 µM
TGI [16]: 45.1 µM
GI50 [17]: 15 µM
TGI [17]: > 100 µM
GI50 [18]: 47.1 µM
TGI [18]: > 100 µM
GI50 [19]: 5.34 µM
TGI [19]: > 100 µM
GI50 [20]: 13 µM
TGI [20]: 28.5 µM
GI50 [21]: 3.37 µM
TGI [21]: 11.9 µM
GI50 [22]: 4.57 µM
TGI [22]: 17.7 µM
GI50 [23]: 21.6 µM
TGI [23]: > 100 µM
GI50 [24]: 3.74 µM
TGI [24]: 26.8 µM
GI50 [25]: 9.11 µM
TGI [25]: 78.9 µM
GI50 [26]: 18 µM
TGI [26]: > 100 µM
GI50 [27]: 14.1 µM
TGI [27]: > 100 µM
GI50 [28]: 7.53 µM
TGI [28]: 62.4 µM
GI50 [30]: 13.6 µM
TGI [30]: 35.2 µM
GI50 [31]: 7.26 µM
TGI [31]: > 100 µM
GI50 [32]: 10.8 µM
TGI [32]: 41.2 µM
GI50 [33]: 15 µM
TGI [33]: > 100 µM
GI50 [34]: 3.7 µM
TGI [34]: 26.9 µM
GI50 [35]: 12 µM
TGI [35]: 29.2 µM
GI50 [36]: 9.67 µM
TGI [36]: 88.1 µM
GI50 [37]: 11.8 µM
TGI [37]: > 100 µM
GI50 [38]: 12.1 µM
TGI [38]: 29.5 µM
GI50 [40]: 3.22 µM
TGI [40]: > 100 µM
GI50 [41]: 5 µM
TGI [41]: 28.4 µM
GI50 [42]: 6.75 µM
TGI [42]: 29 µM
GI50 [43]: 13.1 µM
TGI [43]: > 100 µM
GI50 [44]: 3.75 µM
TGI [44]: > 100 µM
GI50 [45]: 13.1 µM
TGI [45]: 55.1 µM
GI50 [46]: 2.27 µM
TGI [46]: > 100 µM
GI50 [47]: 3.87 µM
TGI [47]: > 100 µM
GI50 [48]: 18.7 µM
TGI [48]: > 100 µM
GI50 [49]: 15.9 µM
TGI [49]: > 100 µM
GI50 [50]: 3.68 µM
TGI [50]: 17.4 µM
GI50 [51]: 5.16 µM
TGI [51]: 24.3 µM
GI50 [52]: 59 µM
TGI [52]: > 100 µM
GI50 [53]: 17.6 µM
TGI [53]: 36.6 µM
GI50 [54]: 5.7 µM
TGI [54]: 23.8 µM
GI50 [55]: 4.82 µM
TGI [55]: > 100 µM

Cc1ccc(S(=O)(=O)Oc2ccccc2-c2ccccc2)cc1
GI50 [1]: 2.32 µM
TGI [1]: > 100 µM
GI50 [2]: 3.09 µM
TGI [2]: > 26.9 µM
GI50 [3]: 0.524 µM
TGI [3]: > 100 µM
GI50 [4]: 5.24 µM
TGI [4]: > 100 µM
GI50 [5]: 5.21 µM
TGI [5]: > 100 µM
GI50 [6]: 1.42 µM
TGI [6]: 8.94 µM
GI50 [7]: 4.86 µM
TGI [7]: > 100 µM
GI50 [8]: 1.81 µM
TGI [8]: 6.94 µM
GI50 [57]: 6.18 µM
TGI [57]: > 100 µM
GI50 [9]: 5.73 µM
TGI [9]: > 100 µM
GI50 [10]: 8.26 µM
TGI [10]: > 100 µM
GI50 [11]: 2.38 µM
TGI [11]: 8.1 µM
GI50 [12]: 0.702 µM
TGI [12]: 3.3 µM
GI50 [58]: 0.542 µM
TGI [58]: 7.83 µM
GI50 [13]: 4.24 µM
TGI [13]: > 100 µM
GI50 [14]: 2.16 µM
TGI [14]: > 100 µM
GI50 [15]: 1.13 µM
TGI [15]: > 28.9 µM
GI50 [16]: 12 µM
TGI [16]: > 100 µM
GI50 [17]: 3.52 µM
TGI [17]: > 100 µM
GI50 [18]: 3.87 µM
TGI [18]: > 72.7 µM
GI50 [19]: 6.81 µM
TGI [19]: > 100 µM
GI50 [20]: 2.98 µM
TGI [20]: > 100 µM
GI50 [21]: 1.18 µM
TGI [21]: > 43.2 µM
GI50 [22]: 2.25 µM
TGI [22]: 8.41 µM
GI50 [23]: 4.4 µM
TGI [23]: > 100 µM
GI50 [24]: 2.63 µM
TGI [24]: > 29 µM
GI50 [25]: 2.85 µM
TGI [25]: > 100 µM
GI50 [26]: 2.87 µM
TGI [26]: > 29.8 µM
GI50 [27]: 5.95 µM
TGI [27]: > 100 µM
GI50 [28]: 8.41 µM
TGI [28]: > 100 µM
GI50 [29]: 3.21 µM
TGI [29]: > 100 µM
GI50 [30]: 7.77 µM
TGI [30]: > 100 µM
GI50 [31]: 8.26 µM
TGI [31]: > 100 µM
GI50 [32]: 5.14 µM
TGI [32]: > 100 µM
GI50 [33]: 4.35 µM
TGI [33]: > 100 µM
GI50 [34]: 2.12 µM
TGI [34]: > 100 µM
GI50 [35]: 0.249 µM
TGI [35]: 0.834 µM
GI50 [36]: 3.81 µM
TGI [36]: > 100 µM
GI50 [37]: 21.2 µM
TGI [37]: > 100 µM
GI50 [38]: 2.3 µM
TGI [38]: > 100 µM
GI50 [39]: 3.42 µM
TGI [39]: > 55.6 µM
GI50 [40]: 1.3 µM
TGI [40]: > 25.5 µM
GI50 [41]: 3.7 µM
TGI [41]: > 100 µM
GI50 [43]: 2.05 µM
TGI [43]: > 86.1 µM
GI50 [44]: 2.48 µM
TGI [44]: > 100 µM
GI50 [45]: 4.22 µM
TGI [45]: > 100 µM
GI50 [46]: 0.465 µM
TGI [46]: > 70.7 µM
GI50 [47]: 3.9 µM
TGI [47]: > 100 µM
GI50 [48]: 0.743 µM
TGI [48]: > 100 µM
GI50 [49]: 1.03 µM
TGI [49]: > 100 µM
GI50 [50]: 2.31 µM
TGI [50]: > 27.7 µM
GI50 [51]: 2.47 µM
TGI [51]: > 100 µM
GI50 [52]: 3.24 µM
TGI [52]: > 45.8 µM
GI50 [53]: 6.55 µM
TGI [53]: > 26.1 µM
GI50 [54]: 1.62 µM
TGI [54]: > 100 µM
GI50 [55]: 4.01 µM
TGI [55]: > 75.7 µM
GI50 [56]: 7.13 µM
TGI [56]: > 100 µM
